Reference: article PMC4444124, “The Stapled AKAP Disruptor Peptide STAD-2 Displays Antimalarial Activity through a PKA-Independent Mechanism” (PLoS ONE, 2015)
Where “and” joins values, the source holds several entries; their conditions need not be identical. Equal values may be shown once.

Tests used:
[1] = tested on: late-stage iRBC; test: Hemolysis (oxyhemoglobin absorbance at 415 nm); format: cell-based, Plasmodium falciparum; settings: late-stage iRBC diluted in uRBC, 0 to 8% parasitemia, 1 μM, 6 hours, versus DMSO, n = 4
Description: Synchronous late-stage iRBC were mixed with uRBC in order to achieve a series of samples with stepwise decreasing parasitemia. […] The plate was incubated at 37°C under standard gas conditions for 6 hours. Following incubation, all samples were transferred to Eppendorf tubes and centrifuged at 700 rcf for 5 minutes to pellet cells. 100 μL of supernatant was removed from each tube and transferred to a 96-well, flat-bottom tissue culture plate. Oxyhemoglobin absorbance was measured at 415 nm using a SpectraMax Plus microplate spectrophotometer with SoftMax Pro 5.4 software (Molecular Devices, LLC).

[2] = tested on: Plasmodium falciparum infected red blood cells (iRBC); test: STAD-2 permeability: uptake of FITC-conjugated peptides by flow cytometry; format: cell-based
Description: (§2) Synchronous ring-stage or late-stage infected red blood cells (iRBC) and uninfected red blood cells (uRBC) were brought up to 4% hematocrit in complete culture medium. FITC-conjugated peptides were added to a final concentration of 1 μM, and cultures were incubated for 6 hours at 37°C under standard gas conditions. Following incubation, 25 μL cell mixture was removed and treated with 100 μL 2 μg/mL Hoechst 33342 for 10 minutes at 37°C. Cells were subsequently washed once in 1 mL 1X PBS, resuspended in 300 μL 1X PBS, and analyzed for Hoechst and FITC staining on a Beckman Coulter CyAn flow cytometer. 500,000 events were collected at a rate of 15,000–20,000 events per second. Data was analyzed using FlowJo X single cell analysis software (FlowJo LLC).

[3] = tested on: Plasmodium falciparum blood stage parasites; test: Dose-response curves (parasitemia by Hoechst flow cytometry); format: cell-based
Description: Synchronous ring-stage or late-stage iRBC at <0.5% parasitemia were brought up to 4% hematocrit in complete culture medium and transferred to a 24-well tissue culture plate in 1 mL aliquots. […] 25 μL were removed from each well at 0, 24, 48, and 72 hours, stained with 100 μL 2 μg/mL Hoechst 33342 for 10 minutes at 37°C, and analyzed by flow cytometry as described above. IC50 values were determined according to parasitemia at 24 hours post-treatment. Parasitemia was defined as the percent of Hoechst-positive RBCs as measured by flow cytometry.

[4] = tested on: PfPKA-R; test: Immunofluorescence assay, colocalization with PKA regulatory subunit; format: cell-based, Plasmodium falciparum; settings: late-stage iRBC, 1 μM FITC-conjugated peptide, 2 hours, anti-PfPKA R antibody
Description: (§1) A culture of primarily late-stage iRBC was incubated with STAD-2 or DMSO as described above. Following incubation, 50 μL of cell mixture was removed and washed twice with 1 mL 1X PBS. Cells were then resuspended in 200 μL 4% paraformaldehyde/0.0075% glutaraldehyde and transferred to a CC2 glass chamber slide (Nalge Nunc International). Cells were fixed for 30 minutes at room temperature and gently washed twice with 300 μL 1X PBS. Fixed cells were subsequently permeabilized with 0.1% Triton X-100/PBS for 10 minutes and washed. Cells were then treated with […] sodium borohydride/PBS for 10 minutes to reduce any free aldehyde groups, washed with 1X PBS, and blocked for 1 hour at room temperature with 3% BSA/PBS. Following blocking, cells were brought up in 200 μL primary antibody and left shaking at 4°C overnight. The following morning, cells were washed three times, for 10 minutes each, to remove excess primary antibody and brought up in 200 μL secondary antibody for 1 hour at room temperature. After washing, cells were counterstained with 200 μL 0.5 μg/mL Hoechst 33342 for 3 minutes at room temperature and washed a final time before removing slide chambers, mounting a coverslip with Fluoro-Gel, and sealing. Rat anti-PfPKA-R was generously donated by Gordon Langsley (Institut Cochin) and diluted 1:300 in 3% BSA/PBS. Goat anti-HsPKA-RII (Abcam) was diluted to 10 μg/mL in 3% BSA/PBS. […]

[5] = tested on: HsPKA-RII; test: as above; format: cell-based, H. sapiens; settings: late-stage iRBC, 1 μM FITC-conjugated peptide, 2 hours, anti-HsPKA RII antibody
Description: as §1

[6] = tested on: late-stage iRBC
Description: Late-stage cultures were brought up to 4% hematocrit in complete culture medium and transferred to a 48-well tissue culture plate at 250 μL per well. Plates were spun at 330 rcf for 5 minutes, the medium was aspirated, and cultures were resuspended in either 250 μL complete culture medium or 200 μM furosemide in complete culture medium for 10 minutes at 37°C. Plates were again spun at 330 rcf, aspirated, and resuspended in 250 μL 1 μM STAD-2, 5% D-Sorbitol, 200 μM furosemide, 130 mM glycerol, 6 μM AgNO3, or a combination of the aforementioned for 10 minutes or 2 hours. Following incubation, 25 μL were removed, stained, and analyzed by flow cytometry as described above. Ten-minute time points served as controls for 5% D-Sorbitol and furosemide activities while effects on STAD-2 uptake were determined using 2-hour time points.

[7] = tested on: Plasmodium falciparum iRBC; test: Parasite viability assay (parasitemia by flow cytometry, Giemsa blood smears); format: cell-based; settings: for morphology of treated iRBC by blood smear: STAD-2 1 μM, H89 30 μM, light microscopy at 48 hours post-treatment, versus DMSO
Description: 25 μL were removed from each well every 24 hours post-treatment, and samples were stained with Hoechst 33342 and analyzed by flow cytometry. Blood smears were made every 24 hours, fixed with methanol, and stained with Giemsa for analysis by light microscopy. Images were acquired using a Nikon Eclipse E400 microscope fitted with a Nikon Digital Sight DS-5M-L1 camera (Nikon Instruments Inc.).

[8] = biological target: T1, cytoadherence linked asexual protein 3.1, or CLAG3 (Plasmodium falciparum, UniProt O77310); test: Immunoprecipitation/mass spectrometry with biotin-conjugated peptide; format: binding; settings: 3D7 parasite supernatant, 16 hours at 4°C, streptavidin beads, MS-MS (S2 Table)
T1 construct: 4 X 10^8 3D7 parasites were lysed with cold 0.04% saponin in PBS; endogenous in cells; host or cells: P. falciparum 3D7 parasites (parasite supernatant of lysate)
Description: 4 X 10^8 3D7 parasites were lysed with cold 0.04% saponin in PBS for 10 minutes. The supernatant was, subsequently, separated from the pellet by centrifugation at 4000 rcf for 10 minutes at 4°C. This supernatant consisted of the RBC cytoplasm and parasite exported proteins (termed host supernatant). The pellet consisted of parasite cells; these were further lysed with […]. The soluble fraction (termed parasite supernatant) of the parasite cells was separated from the insoluble fraction by centrifuging the parasite lysate at 4000 rcf for 10 minutes at 4°C. The host supernatant and the parasite supernatant were each incubated with biotin-conjugated STAD-2 or STAD-2 scramble for 16 hours at 4°C. Peptide-protein complexes were precipitated using streptavidin-coupled Dynabeads (Life Technologies). Dynabeads were subsequently washed four times with 1X PBS, and the precipitated peptide-protein complexes were solubilized in SDS-PAGE sample buffer. Proteins were, then, fractionated on 10% SDS-PAGE, excised, and identified by MS-MS (Proteomics and Mass Spectrometry Core Facility, University of Georgia).
Sequences identified by MS-MS were searched against the NCBI non-redundant protein databases for Plasmodium falciparum (NCBI taxonomy #5833) and human (#9606)/Plasmodium (#5820) and analyzed by Mascot. Results from both database searches were cross-referenced and compiled. […]

[9] = tested on: uninfected red blood cells (uRBC); settings: 1 μM FITC-conjugated peptide, 6 hours, 37°C, 4% hematocrit, Hoechst/FITC flow cytometry
Description: as §2

T1 sequence (O77310 25-1417): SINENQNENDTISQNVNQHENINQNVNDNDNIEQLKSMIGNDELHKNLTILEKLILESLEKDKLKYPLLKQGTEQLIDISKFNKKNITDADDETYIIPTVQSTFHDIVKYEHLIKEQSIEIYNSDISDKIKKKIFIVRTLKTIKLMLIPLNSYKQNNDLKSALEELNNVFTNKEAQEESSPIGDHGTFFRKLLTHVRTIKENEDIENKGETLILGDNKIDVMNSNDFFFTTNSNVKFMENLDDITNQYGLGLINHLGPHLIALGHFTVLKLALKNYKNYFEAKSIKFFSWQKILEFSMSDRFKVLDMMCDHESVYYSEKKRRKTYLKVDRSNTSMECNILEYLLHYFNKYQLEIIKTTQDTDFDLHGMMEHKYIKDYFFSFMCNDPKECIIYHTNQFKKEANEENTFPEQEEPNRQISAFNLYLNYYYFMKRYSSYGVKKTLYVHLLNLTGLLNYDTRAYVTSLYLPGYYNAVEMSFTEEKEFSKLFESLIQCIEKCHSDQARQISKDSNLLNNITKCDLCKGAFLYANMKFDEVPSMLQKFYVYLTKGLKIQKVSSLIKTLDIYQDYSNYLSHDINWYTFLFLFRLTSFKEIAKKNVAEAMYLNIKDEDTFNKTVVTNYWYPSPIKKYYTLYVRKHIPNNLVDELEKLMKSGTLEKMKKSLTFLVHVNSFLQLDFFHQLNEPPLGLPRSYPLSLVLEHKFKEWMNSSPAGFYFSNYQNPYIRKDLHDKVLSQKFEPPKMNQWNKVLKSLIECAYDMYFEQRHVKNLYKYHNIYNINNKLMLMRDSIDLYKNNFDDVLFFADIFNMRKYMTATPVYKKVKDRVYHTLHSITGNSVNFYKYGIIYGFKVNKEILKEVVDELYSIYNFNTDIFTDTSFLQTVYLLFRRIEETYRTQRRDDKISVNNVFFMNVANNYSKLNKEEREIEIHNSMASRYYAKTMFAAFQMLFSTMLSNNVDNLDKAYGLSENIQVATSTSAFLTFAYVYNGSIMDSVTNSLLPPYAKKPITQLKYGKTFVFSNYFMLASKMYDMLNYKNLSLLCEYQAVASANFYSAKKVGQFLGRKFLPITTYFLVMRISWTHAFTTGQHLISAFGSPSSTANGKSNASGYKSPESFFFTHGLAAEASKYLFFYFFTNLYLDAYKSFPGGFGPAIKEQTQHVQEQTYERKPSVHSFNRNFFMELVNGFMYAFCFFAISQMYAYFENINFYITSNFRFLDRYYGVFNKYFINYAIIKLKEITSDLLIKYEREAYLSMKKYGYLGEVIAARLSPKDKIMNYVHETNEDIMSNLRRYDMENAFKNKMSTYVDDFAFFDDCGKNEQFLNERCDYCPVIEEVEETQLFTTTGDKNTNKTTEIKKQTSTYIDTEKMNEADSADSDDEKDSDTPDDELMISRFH

SMILES: CC(C)C[C@H](NC(=O)[C@H](C)NC(=O)[C@]1(C)CCCC=CCCC[C@](C)(NC(=O)[C@H](CO)NC(=O)[C@@H](NC(=O)[C@H](CC(C)C)NC(=O)[C@H](Cc2ccccc2)NC(=O)[C@H](CCCCN)NC(=O)[C@H](C)NC(=O)[C@H](CC(C)C)NC(=O)[C@H](CCCCN)NC(=O)[C@H](CCCCN)NC(=O)CCNC(=S)Nc2ccc3c(c2)C(=O)OC32c3ccc(O)cc3Oc3cc(O)ccc32)C(C)C)C(=O)N[C@@H](C)C(=O)N[C@@H](CC(C)C)C(=O)N[C@@H](CCCCN)C(=O)N1)C(=O)N[C@@H](CCCCN)C(N)=O [STAD-2]
- iRBC lysis (oxyhemoglobin A415 in medium) [1]: significantly greater than controls
- uptake by synchronous ring-stage and late-stage iRBC ([2]; 1 μM FITC-conjugated peptide, 6 hours, flow cytometry, 2way ANOVA p<0.001, n = 3-6): significantly increased uptake
- permeability in iRBC ([2]; CS2 iRBC, 1 μM FITC-conjugated peptide, 6 hours, 37°C, 4% hematocrit, Hoechst/FITC flow cytometry): significant permeability
- permeability to iRBC among stapled peptides (median fluorescence intensity) ([2]; iRBC, 1 μM stapled FITC-conjugated peptides, 6 hours, flow cytometry, n = 2-6 (Fig 7)): clearly permeable
- permeability across parasite strains ([2]; late-stage CS2, Dd2, 3D7, Hb3 iRBC, 1 μM FITC-conjugated peptide, 2 hours, flow cytometry, n = 2 (S1 Fig)): comparable levels of permeability
- time to near-maximum levels of uptake ([2]; late-stage iRBC, 1 μM FITC-conjugated peptide for 1, 2, 3 or 6 hours, flow cytometry, n = 3 (S2 Fig)): ≤ 3 h
- effect on parasitemia relative to DMSO-treated controls, dose-response ([3]; ring- and late-stage iRBC, 0, 0.5, 1, 2, 5 μM, 24 hours post-treatment, n = 3): concentration-dependent decrease in parasitemia
- colocalization with PfPKA-R [4]: did not definitively colocalize
- colocalization with HsPKA-RII [5]: did not definitively colocalize
- STAD-2 uptake, co-incubation with AgNO3 ([6]; 1 μM STAD-2 + 6 μM AgNO3 (AQP1 inhibitor), 2 hours, flow cytometry, n = 2): no apparent change in STAD-2 uptake
- STAD-2 uptake, co-treatment with furosemide alone ([6]; 1 μM STAD-2 + 200 μM furosemide (PSAC inhibitor), 2 hours, pre-treatment with medium, flow cytometry, n = 3): no discernible effect on STAD-2 uptake
- STAD-2 uptake, co-incubation with glycerol ([6]; 1 μM STAD-2 + 130 mM glycerol (AQP3 solute), 2 hours, flow cytometry, n = 2): no apparent change in STAD-2 uptake
- STAD-2 uptake, co-incubation with D-Sorbitol ([6]; 1 μM STAD-2 + 5% D-Sorbitol (PSAC solute), 2 hours, flow cytometry, n = 2): slight reduction of STAD-2 uptake
- STAD-2 uptake, furosemide pre-incubation then co-treatment ([6]; 200 μM furosemide 10 minutes pre-incubation, then 1 μM STAD-2 + 200 μM furosemide 2 hours, p = 0.0557, n = 3): consistent but statistically insignificant decrease
- viability of P. falciparum strains ([7]; late-stage CS2, 3D7, Dd2, Hb3, 1 μM FITC-conjugated peptide, parasitemia at 24, 48, 72 hours, n = 3 (S3 Fig)): reduced viability in CS2, Dd2, and Hb3 strains
- parasitemia 6 hours post-treatment ([7]; late-stage iRBC, 1 μM FITC-conjugated peptide, 6 hours, flow cytometry, n = 7 (S4 Fig)): Reduction in parasitemia was evident
- morphology of treated iRBC by blood smear ([7]; late-stage iRBC): did not differ morphologically from DMSO controls
- parasitemia relative to DMSO controls over 72 hours ([7]; synchronous ring- and late-stage iRBC, 1 μM, flow cytometry every 24 hours for 72 hours, significant by 48 hours (p<0.001), n = 3): significantly decreased parasitemias
- association with CLAG3 by IP/MS [8]: showed association
- permeability in uRBC [9]: only a nominal amount

SMILES: O=S(=O)(NCCNC/C=C/c1ccc(Br)cc1)c1cccc2cnccc12 [H89]
- IC50 ([3]; late-stage CS2 parasites, serial dilutions 100-0.78 μM, 24 hours, Hoechst flow cytometry, n = 2 (S5 Fig), read-out: H89 in vitro IC50): 30 µM and ~30 µM
- morphology of treated iRBC by blood smear ([7]; late-stage iRBC): clear morphological changes including the notable absence of a digestive vacuole
